The test addresses T1, SHP2 protein (Homo sapiens, UniProt Q06124).
T1 sequence (Q06124 1-593): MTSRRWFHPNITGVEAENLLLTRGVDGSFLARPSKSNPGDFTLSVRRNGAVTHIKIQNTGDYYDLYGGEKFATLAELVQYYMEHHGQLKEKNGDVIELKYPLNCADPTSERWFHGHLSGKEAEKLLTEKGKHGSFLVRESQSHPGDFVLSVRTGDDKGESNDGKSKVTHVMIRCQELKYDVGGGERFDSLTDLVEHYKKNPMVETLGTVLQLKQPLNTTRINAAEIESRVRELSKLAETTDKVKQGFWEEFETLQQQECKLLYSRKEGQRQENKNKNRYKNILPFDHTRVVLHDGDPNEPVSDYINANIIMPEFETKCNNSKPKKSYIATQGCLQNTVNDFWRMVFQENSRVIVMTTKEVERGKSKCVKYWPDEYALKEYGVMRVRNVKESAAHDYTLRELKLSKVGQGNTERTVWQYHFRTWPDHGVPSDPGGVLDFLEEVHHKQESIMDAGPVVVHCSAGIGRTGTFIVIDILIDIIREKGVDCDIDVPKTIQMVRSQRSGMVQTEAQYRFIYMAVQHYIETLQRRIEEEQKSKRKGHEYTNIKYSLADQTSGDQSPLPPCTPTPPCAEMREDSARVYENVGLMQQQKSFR
Description: Measurement of SHP2 protein degradation in MV-4-11 cells (western blotting). As to conditions: harvested after 24 hours. Set-up: endogenous in cells. Type of test: cell-based. The gist of the method: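 MV-4-11 cells in IMDM/5% FBS were exposed to compound at final 0.01, 0.1, 1 μM or 0.001, 0.01, 0.1 μM for 24 h, DMSO as negative control. BCA-normalised lysates were immunoblotted for SHP2 with GAPDH as loading control, read on LI-COR Odyssey.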
In general terms: A western blot detects proteins with antibodies after separation by electrophoresis.

Consider `Cc1ncsc1-c1ccc([C@H](C)NC(=O)[C@@H]2C[C@@H](O)CN2C(=O)[C@@H](NC(=O)C2(F)CC2)C(C)(C)C)c(OC2CCN(C(=O)C3CCN(c4nccc(Sc5cnc(N6CCC(C)(CN)CC6)cn5)c4Cl)CC3)CC2)c1` [Example 86, (2S,4R)—N—((S)-1-(2-((1-(1-(4-((5-(4-(aminomethyl)-4-methylpiperidin-1-yl)pyrazin-2-yl)thio)-3-chloropyridin-2-yl)piperidine-4-carbonyl)piperidin-4-yl)oxy)-4-(4-methylthiazol-5-yl)phenyl)ethyl)-1-((S)-2-(1-fluorocyclopropane-1-carboxamido)-3,3-dimethylbutanoyl)-4-hydroxypyrrolidine-2-carboxamide], for which the SHP2% degradation by setting is: (0.01 μM) 81.9%; (0.1 μM) 99.9%.

For the molecule `Cc1ncsc1-c1ccc(CNC(=O)[C@@H]2C[C@@H](O)CN2C(=O)[C@@H](NC(=O)C2(F)CC2)C(C)(C)C)c(O[C@H]2CC[C@H](C(=O)N3CC(Nc4cccc(Oc5cnc(N6CCC(C)(CN)CC6)cn5)c4Cl)C3)CC2)c1` [Example 16, (2S,4R)—N-(2-(((1R,4S)-4-(3-((3-((5-(4-(aminomethyl)-4-methylpiperidin-1-yl)pyrazin-2-yl)oxy)-2-chlorophenyl)amino)azetidine-1-carbonyl)cyclohexyl)oxy)-4-(4-methylthiazol-5-yl)benzyl)-1-((S)-2-(1-fluorocyclopropane-1-carboxamido)-3,3-dimethylbutanoyl)-4-hydroxypyrrolidine-2-carboxamide], the SHP2% degradation (0.01 μM) is −30.1% and the SHP2% degradation (0.1 μM) amounted to 94.3%.

For `Cc1ncsc1-c1ccc(CNC(=O)[C@@H]2C[C@@H](O)CN2C(=O)[C@@H](NC(=O)C2(F)CC2)C(C)(C)C)c(OCCN2CCC(C(=O)N3CCN(c4nccc(Sc5cnc(N6CCC(C)(CN)CC6)cn5)c4Cl)CC3)CC2)c1` [Example 52, (2S,4R)—N-(2-(2-(4-(4-(4-((5-(4-(aminomethyl)-4-methylpiperidin-1-yl)pyrazin-2-yl)thio)-3-chloropyridin-2-yl)piperazine-1-carbonyl)piperidin-1-yl)ethoxy)-4-(4-methylthiazol-5-yl)benzyl)-1-((S)-2-(1-fluorocyclopropane-1-carboxamido)-3,3-dimethylbutanoyl)-4-hydroxypyrrolidine-2-carboxamide], the SHP2% degradation (0.01 μM) came to 20.5% and the SHP2% degradation (0.1 μM) was determined as 91.9%.

With `Cc1ncsc1-c1ccc(CNC(=O)[C@@H]2C[C@@H](O)CN2C(=O)[C@@H](NC(=O)C2(F)CC2)C(C)(C)C)c(O[C@H]2CC[C@H](C(=O)N3CCC(Nc4cccc(Sc5cnc(N6CCC(C)(CN)CC6)cn5)c4Cl)CC3)CC2)c1` [Example 17, (2S,4R)—N-(2-(((1R,4S)-4-(4-((3-((5-(4-(aminomethyl)-4-methylpiperidin-1-yl)pyrazin-2-yl)thio)-2-chlorophenyl)amino)piperidine-1-carbonyl)cyclohexyl)oxy)-4-(4-methylthiazol-5-yl)benzyl)-1-((S)-2-(1-fluorocyclopropane-1-carboxamido)-3,3-dimethylbutanoyl)-4-hydroxypyrrolidine-2-carboxamide], the SHP2% degradation worked out at 64.4% (0.01 μM) and 96.6% (0.1 μM).

Regarding `Cc1ncsc1-c1ccc(CNC(=O)[C@@H]2C[C@@H](O)CN2C(=O)[C@@H](NC(=O)C2(F)CC2)C(C)(C)C)c(OCCN2CCN(CCNc3cccc(Sc4cnc(N5CCC(C)(CN)CC5)cn4)c3Cl)C(=O)C2)c1` [Example 3, (2S,4R)—N-(2-(2-(4-(2-((3-((5-(4-(aminomethyl)-4-methylpiperidin-1-yl)pyrazin-2-yl)thio)-2-chlorophenyl)amino)ethyl)-3-oxopiperazin-1-yl)ethoxy)-4-(4-methylthiazol-5-yl)benzyl)-1-((S)-2-(1-fluorocyclopropane-1-carboxamido)-3,3-dimethylbutanoyl)-4-hydroxypyrrolidine-2-carboxamide], the SHP2% degradation is, setting by setting: (0.01 μM) 19%; (0.1 μM) 90.3%.

Consider `Cc1ncsc1-c1ccc(CNC(=O)[C@@H]2C[C@@H](O)CN2C(=O)[C@@H](NC(=O)C2(F)CC2)C(C)(C)C)c(O[C@H]2CC[C@H](C(=O)N3CC(Nc4nccc(Sc5cnc(N6CCC(C)(CN)CC6)cn5)c4Cl)C3)CC2)c1` [Example 20, (2S,4R)—N-(2-(((1R,4S)-4-(3-((4-((5-(4-(aminomethyl)-4-methylpiperidin-1-yl)pyrazin-2-yl)thio)-3-chloropyridin-2-yl)amino)azetidine-1-carbonyl)cyclohexyl)oxy)-4-(4-methylthiazol-5-yl)benzyl)-1-((S)-2-(1-fluorocyclopropane-1-carboxamido)-3,3-dimethylbutanoyl)-4-hydroxypyrrolidine-2-carboxamide], for which the SHP2% degradation is, setting by setting: (0.01 μM) 78.8%; (0.1 μM) 98.2%.

As for `Cc1ncsc1-c1ccc(CNC(=O)[C@@H]2C[C@@H](O)CN2C(=O)[C@@H](NC(=O)C2(F)CC2)C(C)(C)C)c(O[C@H]2CC[C@H](C(=O)N3CCN(c4nccc(Sc5cnc(N6CCC(C)(CN)CC6)cn5)c4Cl)CC3)CC2)c1` [Example 26, (2S,4R)—N-(2-(((1R,4S)-4-(4-(4-((5-(4-(aminomethyl)-4-methylpiperidin-1-yl)pyrazin-2-yl)thio)-3-chloropyridin-2-yl)piperazine-1-carbonyl)cyclohexyl)oxy)-4-(4-methylthiazol-5-yl)benzyl)-1-((S)-2-(1-fluorocyclopropane-1-carboxamido)-3,3-dimethylbutanoyl)-4-hydroxypyrrolidine-2-carboxamide], the SHP2% degradation (0.01 μM) worked out at 52.3% and the SHP2% degradation (0.1 μM) is given as 96.1%.

In the case of `Cc1ncsc1-c1ccc(CNC(=O)[C@@H]2C[C@@H](O)CN2C(=O)[C@@H](NC(=O)C2(F)CC2)C(C)(C)C)c(OC2CCN(C(=O)[C@H]3CC[C@H](Nc4nccc(Sc5cnc(N6CCC(C)(CN)CC6)cn5)c4Cl)CC3)CC2)c1` [Example 62, (2S,4R)—N-(2-((1-((1R,4S)-4-((4-((5-(4-(aminomethyl)-4-methylpiperidin-1-yl)pyrazin-2-yl)thio)-3-chloropyridin-2-yl)amino)cyclohexanecarbonyl)piperidin-4-yl)oxy)-4-(4-methylthiazol-5-yl)benzyl)-1-((S)-2-(1-fluorocyclopropane-1-carboxamido)-3,3-dimethylbutanoyl)-4-hydroxypyrrolidine-2-carboxamide], the SHP2% degradation runs as follows: (0.01 μM) 75.6%; (0.1 μM) 98.9%.

For `Cc1ncsc1-c1ccc(CNC(=O)[C@@H]2C[C@@H](O)CN2C(=O)[C@@H](NC(=O)C2(F)CC2)C(C)(C)C)c(OC2CCN(C(=O)C3(C)CCN(c4nccc(Sc5cnc(N6CCC(C)(CN)CC6)cn5)c4Cl)CC3)CC2)c1` [Example 68, (2S,4R)—N-(2-((1-(1-(4-((5-(4-(aminomethyl)-4-methylpiperidin-1-yl)pyrazin-2-yl)thio)-3-chloropyridin-2-yl)-4-methylpiperidine-4-carbonyl)piperidin-4-yl)oxy)-4-(4-methylthiazol-5-yl)benzyl)-1-((S)-2-(1-fluorocyclopropane-1-carboxamido)-3,3-dimethylbutanoyl)-4-hydroxypyrrolidine-2-carboxamide], the SHP2% degradation (0.01 μM) was −22.1% and the SHP2% degradation (0.1 μM) amounted to 95.7%.

For `Cc1ncsc1-c1ccc(CNC(=O)[C@@H]2C[C@@H](O)CN2C(=O)[C@@H](NC(=O)C2(F)CC2)C(C)(C)C)c(OCC2CCN(C(=O)C3CCN(c4nccc(Sc5cnc(N6CCC(C)(CN)CC6)cn5)c4Cl)CC3)CC2)c1` [Example 58, (2S,4R)—N-(2-((1-(1-(4-((5-(4-(aminomethyl)-4-methylpiperidin-1-yl)pyrazin-2-yl)thio)-3-chloropyridin-2-yl)piperidine-4-carbonyl)piperidin-4-yl)methoxy)-4-(4-methylthiazol-5-yl)benzyl)-1-((S)-2-(1-fluorocyclopropane-1-carboxamido)-3,3-dimethylbutanoyl)-4-hydroxypyrrolidine-2-carboxamide], the SHP2% degradation (0.01 μM) was found to be 82.0% and the SHP2% degradation (0.1 μM) was found to be 97.7%.

In the case of `Cc1ncsc1-c1ccc(CNC(=O)[C@@H]2C[C@@H](O)CN2C(=O)[C@@H](NC(=O)C2(F)CC2)C(C)(C)C)c(OCCN2CCN(CC3CCN(c4nccc(Sc5cnc(N6CCC(C)(CN)CC6)cn5)c4Cl)CC3)CC2)c1` [Example 8, (2S,4R)—N-(2-(2-(4-((1-(4-((5-(4-(aminomethyl)-4-methylpiperidin-1-yl)pyrazin-2-yl)thio)-3-chloropyridin-2-yl)piperidin-4-yl)methyl)piperazin-1-yl)ethoxy)-4-(4-methylthiazol-5-yl)benzyl)-1-((S)-2-(1-fluorocyclopropane-1-carboxamido)-3,3-dimethylbutanoyl)-4-hydroxypyrrolidine-2-carboxamide], the SHP2% degradation was found to be 11.7% (0.01 μM) and 81.9% (0.1 μM).

Source of the values: patent publication US20260144788A1, “COMPOUND FOR SHP2 PROTEIN DEGRADATION AND MEDICAL USES THEREOF” (UBIX THERAPEUTICS, INC., priority 2022, published 2026).
